Active and inactive are the calls of the source. The calls are words filed in the database; no cut-off is given here.
How the values were obtained:
[1] = molecular target: Prostaglandin G/H synthase 1 (Homo sapiens) (UniProt P23219); experiment: Inhibition of cyclooxygenase 1 in human platelet assessed as 12-hydroxyheptadecatrienoic acid production
Mus musculus [2] = experiment: Antiinflammatory activity against PLA2-induced Swiss mouse paw edema at 5 mg/kg, ip administered 60 mins before PLA2 challenge; type: functional; conditions: route intraperitoneal
[3] = molecular target: T1, Polyunsaturated fatty acid 5-lipoxygenase (Rattus norvegicus) (UniProt P12527); experiment: Inhibition of 5-lipoxygenase in rat leukocytes assessed as inhibition of calcium ionophore A-23187/calcium-stimulated LTB4 production; type: cell-based
T1 sequence (whole entry): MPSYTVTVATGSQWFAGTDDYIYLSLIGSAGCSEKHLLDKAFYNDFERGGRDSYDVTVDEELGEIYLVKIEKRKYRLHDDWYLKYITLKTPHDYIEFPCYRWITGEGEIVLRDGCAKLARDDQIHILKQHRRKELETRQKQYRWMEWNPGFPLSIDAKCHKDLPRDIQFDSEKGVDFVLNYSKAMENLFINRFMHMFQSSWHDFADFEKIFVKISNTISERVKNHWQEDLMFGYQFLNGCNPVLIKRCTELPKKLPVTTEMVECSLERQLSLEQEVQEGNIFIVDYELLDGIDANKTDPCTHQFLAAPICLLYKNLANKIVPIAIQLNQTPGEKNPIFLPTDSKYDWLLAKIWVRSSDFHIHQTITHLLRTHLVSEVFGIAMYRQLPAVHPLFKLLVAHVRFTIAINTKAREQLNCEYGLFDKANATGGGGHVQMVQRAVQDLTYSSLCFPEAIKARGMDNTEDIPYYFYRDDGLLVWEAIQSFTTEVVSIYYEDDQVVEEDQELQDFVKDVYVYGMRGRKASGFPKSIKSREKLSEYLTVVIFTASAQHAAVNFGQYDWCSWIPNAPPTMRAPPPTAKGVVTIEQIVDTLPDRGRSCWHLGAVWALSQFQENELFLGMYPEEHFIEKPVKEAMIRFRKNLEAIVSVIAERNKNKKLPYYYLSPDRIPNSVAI

Mus musculus [4] = experiment: Antiinflammatory activity against PLA2-induced Swiss mouse paw edema at 5 mg/kg, ip administered 30 mins before PLA2 challenge; type: functional; conditions: route intraperitoneal
Mus musculus [5] = experiment: Antiinflammatory activity against TPA-induced Swiss mouse ear edema assessed as reduction in ear swelling at 0.25 mg/ear topically after 4 hrs relative to control; type: functional
Mus musculus [6] = experiment: Antiinflammatory activity against PLA2-induced Swiss mouse paw edema at 5 mg/kg, ip administered 30 mins before PLA2 challenge
Mus musculus [7] = experiment: Antiinflammatory activity against TPA-induced Swiss mouse ear edema assessed as reduction in ear swelling at 0.5 mg/ear topically after 4 hrs relative to control; type: functional
Mus musculus [8] = experiment: Antiinflammatory activity against carrageenan-induced Swiss mouse paw edema at 10 mg/kg, po; type: functional

Chain of Prostaglandin G/H synthase 1 (Homo sapiens) (P23219 whole entry): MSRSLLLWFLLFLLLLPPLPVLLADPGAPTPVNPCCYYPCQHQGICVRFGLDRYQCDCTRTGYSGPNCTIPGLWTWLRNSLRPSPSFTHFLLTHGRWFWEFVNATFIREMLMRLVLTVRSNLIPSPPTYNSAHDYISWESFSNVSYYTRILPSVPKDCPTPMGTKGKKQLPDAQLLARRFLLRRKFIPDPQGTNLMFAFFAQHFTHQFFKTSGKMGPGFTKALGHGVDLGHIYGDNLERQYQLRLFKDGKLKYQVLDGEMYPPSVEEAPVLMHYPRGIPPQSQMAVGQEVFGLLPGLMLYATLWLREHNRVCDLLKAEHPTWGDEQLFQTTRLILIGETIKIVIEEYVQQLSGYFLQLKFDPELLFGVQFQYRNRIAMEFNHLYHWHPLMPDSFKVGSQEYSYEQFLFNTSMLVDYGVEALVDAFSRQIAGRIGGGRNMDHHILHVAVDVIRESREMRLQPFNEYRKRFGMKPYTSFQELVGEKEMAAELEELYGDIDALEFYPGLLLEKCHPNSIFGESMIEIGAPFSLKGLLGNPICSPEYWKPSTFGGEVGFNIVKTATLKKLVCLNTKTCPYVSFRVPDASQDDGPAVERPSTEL

SMILES	Activity [1]	inhibition in vivo at 5 mg/kg (Mus musculus [2])	Activity [3]	inhibition in vivo at 5 mg/kg (Mus musculus [4])	inhibition (INH) (Mus musculus [5])	inhibition in vivo at 5 mg/kg (Mus musculus [6])	inhibition (INH) (Mus musculus [7])	inhibition in vivo at 10 mg/kg (Mus musculus [8])
COc1ccc(-c2coc3cc(OC/C=C(\C)CCC(O)C(C)(C)O)ccc3c2=O)cc1 (centres undefined) [GRIFFONIANONE D]	inactive	30%	inactive	42%	77%	–	–	–
CN1CCC(=C2c3ccccc3C=Cc3ccccc32)CC1 [CYPROHEPTADINE]	–	–	–	82%	–	82%	–	–
COc1ccc2c(c1)c(CC(=O)O)c(C)n2C(=O)c1ccc(Cl)cc1 [INDOMETHACIN]	–	–	–	–	–	–	82%	60%
